Data reported in ChEMBL document CHEMBL5050843, “Amide substituted thiazoles as protein secretion inhibitors” (2019).

What was measured:
[1] = Inhibition of constitutively active VCAMss-Gluc secretion in human Flp-In-T-REx-293 cells measured by Gaussia luciferase reporter gene method; assay type: functional, cell-based
[2] = Inhibition of constitutively active PR1ss-Gluc secretion in human Flp-In-T-REx-293 cells measured by Gaussia luciferase reporter gene method; assay type: functional, cell-based

## CC(C)(C)c1csc(NC(=O)CCc2ccccc2)n1
[1]
  IC50: 17.4 µM
[2]
  IC50: > 25 µM

## CC(C)(C)c1csc(NC(=O)C2CCOC2)n1 (stereo not drawn)
[1]
  IC50: > 25 µM
[2]
  IC50: > 25 µM

## CC(C)(C)c1csc(NC(=O)C2=CCCC2)n1
[1]
  IC50: > 25 µM
[2]
  IC50: > 25 µM

## CC(C)(C)c1csc(NC(=O)C2CCCc3ccccc32)n1 (stereo not drawn)
[1]
  IC50: > 25 µM
[2]
  IC50: > 25 µM

## CC(C)(C)c1csc(NC(=O)[C@@H]2CCCO2)n1
[1]
  IC50: > 25 µM
[2]
  IC50: > 25 µM

## CC(C)(C)c1csc(NC(=O)Cc2ccccc2Cl)n1
[1]
  IC50: 18.4 µM
[2]
  IC50: > 25 µM

## C[C@@H](C(=O)Nc1nc(C(C)(C)C)cs1)c1ccccc1
[1]
  IC50: 11.1 µM
[2]
  IC50: > 25 µM

## CC(C)(C)c1csc(NC(=O)Cc2ccc(Cl)c(Cl)c2)n1
[1]
  IC50: 2.64 µM
[2]
  IC50: > 25 µM

## CC(C)(C)c1csc(NC(=O)CC2CCCC2)n1
[1]
  IC50: 9.82 µM
[2]
  IC50: > 25 µM

## CC(C)(C)c1csc(NC(=O)Cc2ccc(Cl)cc2)n1
[1]
  IC50: 4.88 µM
[2]
  IC50: > 25 µM

## CC(C)(CCO)c1csc(NC(=O)Cc2cc(Cl)cc(Cl)c2)n1
[1]
  IC50: > 25 µM
[2]
  IC50: > 25 µM

## CC(C)(C)c1csc(NC(=O)C2(c3cccc(Cl)c3)CCCC2)n1
[1]
  IC50: 8.15 µM
[2]
  IC50: > 25 µM

## CC(C)(C)c1csc(NC(=O)c2cccc(Cl)c2)n1
[1]
  IC50: 8.4 µM
[2]
  IC50: > 25 µM

## CC(C)(C)c1csc(NC(=O)Cc2csc3ccccc23)n1
[1]
  IC50: 1.76 µM
[2]
  IC50: > 25 µM

## CC(C)(C)c1csc(NC(=O)C2CCCC2)n1
[1]
  IC50: 17 µM
[2]
  IC50: > 25 µM

## CC[C@@H](C(=O)Nc1nc(C(C)(C)C)cs1)c1ccccc1
[1]
  IC50: 9.54 µM
[2]
  IC50: > 25 µM

## CC(C)(C)c1csc(NC(=O)c2ccc3c(c2)CCCO3)n1
[1]
  IC50: 6.09 µM
[2]
  IC50: > 25 µM

## CC(C)(C)c1csc(NC(=O)Cc2cccc(Br)c2)n1
[1]
  IC50: 5.71 µM
[2]
  IC50: > 25 µM

## CC(C)(C)c1csc(NC(=O)C(C)(C)c2ccccc2)n1
[1]
  IC50: 14.7 µM
[2]
  IC50: > 25 µM

## CC(C)(C)c1csc(NC(=O)Cc2cccc(C(F)(F)F)c2)n1
[1]
  IC50: 6.81 µM
[2]
  IC50: > 25 µM

## CC(C)(C)c1csc(NC(=O)c2ccc3cn[nH]c3c2)n1
[1]
  IC50: > 25 µM
[2]
  IC50: > 25 µM

## CC(C)(C)c1csc(NC(=O)Cc2cccc(C#N)c2)n1
[1]
  IC50: 15.4 µM
[2]
  IC50: > 25 µM

## CC(C)(C)c1csc(NC(=O)C2=CCCCC2)n1
[1]
  IC50: 23.7 µM
[2]
  IC50: > 25 µM

## CC(C)(C)c1csc(NC(=O)Cc2cc(Cl)cc(Cl)c2)n1
[1]
  IC50: 1.69 µM
[2]
  IC50: > 25 µM

## CC(C)(C)c1csc(NC(=O)C2Cc3ccccc3C2)n1
[1]
  IC50: 11.2 µM
[2]
  IC50: > 25 µM

## C[C@H](C(=O)Nc1nc(C(C)(C)C)cs1)c1ccccc1
[1]
  IC50: > 25 µM
[2]
  IC50: > 25 µM

## CC(C)(C)c1csc(NC(=O)CC2CCCCC2)n1
[1]
  IC50: 6.09 µM
[2]
  IC50: > 25 µM

## CC(C)(C)c1csc(NC(=O)c2ccc3[nH]ncc3c2)n1
[1]
  IC50: 20.7 µM
[2]
  IC50: > 25 µM

## CC(C)(C)c1csc(NC(=O)c2ccccc2Cl)n1
[1]
  IC50: > 25 µM
[2]
  IC50: > 25 µM

## COc1cccc(CC(=O)Nc2nc(C(C)(C)C)cs2)c1
[1]
  IC50: 10.3 µM
[2]
  IC50: > 25 µM

## CC(C)(C)c1csc(NC(=O)C(C)(C)c2ccc(Cl)c(Cl)c2)n1
[1]
  IC50: 6.49 µM
[2]
  IC50: > 25 µM

## CC(C)(C)c1csc(NC(=O)Cc2ccccc2)n1
[1]
  IC50: 24.1 µM
[2]
  IC50: > 25 µM

## CCOC(=O)CC(C)(C)c1csc(NC(=O)Cc2cc(Cl)cc(Cl)c2)n1
[1]
  IC50: 8.93 µM
[2]
  IC50: > 25 µM

## CC(C)(C)c1csc(NC(=O)C2CCOCC2)n1
[1]
  IC50: > 25 µM
[2]
  IC50: > 25 µM

## CC(C)(C)c1csc(NC(=O)C2CCc3ccccc3C2)n1 (stereo not drawn)
[1]
  IC50: 11.8 µM
[2]
  IC50: > 25 µM

## CC(C)(C)c1csc(NC(=O)c2ccc3c(c2)OCCN3)n1
[1]
  IC50: > 25 µM
[2]
  IC50: > 25 µM

## CC(C)(C)c1csc(NC(=O)C(C)(C)c2cccc(Cl)c2)n1
[1]
  IC50: 8.6 µM
[2]
  IC50: > 25 µM

## CC(C)(C)c1csc(NC(=O)Cc2cccc(Cl)c2)n1
[1]
  IC50: 7.85 µM
[2]
  IC50: > 25 µM

## CC(C)(C)c1csc(NC(=O)C2(c3cccc(Cl)c3)CC2)n1
[1]
  IC50: 19.6 µM
[2]
  IC50: > 25 µM
